Results from patent US12702643B2, “Ion-exchange composition with water-soluble mucoadhesive polymers” (Fertin Pharma A/S, priority 2019, dated 2026).

Conditions: increase of nicotine concentration from 100 microgram/mL to 14,000 microgram/mL

## CN1CCCC1c1cccnc1 (stereo not shown) [nicotine]
  Permeability of nicotine across the buccal mucosa: decrease of about a factor of two
